Source: patent US10765693B2, “Polymorphic compounds and uses thereof” (Astrocyte Pharmaceuticals, Inc., priority 2018, dated 2020)

What was measured:
Format in all cases: physicochemical
[1] = Stability when milled in the presence of water or stirred (slurried) in water; conditions: milled with water; stirred in water between room temperature and 60° C.
Procedure: Milling was performed using a Retsch Mill. About 20 mg of material was placed into a plastic grinding cup followed by 10 μL of water and a stainless-steel ball. The sample was then milled at 100% power for 20 minutes.
To a plastic grinding cup was added 18.4 mg of Compound A and 10 μL of water. A stainless-steel ball was added. The sample was then milled on a Retsch mill at 100% power for 20 minutes at room temperature.
(§1) To a 20 mL glass vial was added 200.0 mg of Compound A and 3.0 mL of water. A magnetic stir bar was added and the vial was capped. The vial was placed on a heating/stirring plate and the slurry was stirred magnetically for 7 days at ambient temperature. The vial was centrifuged for 10 minutes and the mother liquor was decanted. A dry air purge was directed into the vial for 10 minutes to dry the solid. The vial was then placed in a room temperature vacuum desiccator for 2 hours.
as §1, with “plate set at 60° C.” for “plate”, “3 days.” for “7 days at ambient temperature.”

[2] = Relative stability of Form A and Form B slurried in organic/water solvent systems of differing water activity; conditions: mixture of the two forms slurried
Source text: If the solvent system has higher than or equal water activity of 0.72, and the two crystalline forms are mixed, the mixture converts to Form A. The solvent systems can be mixture of any organic solvents and organic solvents containing water.
The solvent systems can be mixture of any organic solvents and organic solvents containing water.

[3] = Dynamic Vapour Sorption (DVS) analysis; conditions: for moisture gain observed during the moisture sorption: adsorption cycle 5 to 95% RH; for crystalline form after the DVS analysis (XRPD before/after): sample exposed up to 95% RH and down to 5% RH
Procedure: Dynamic Vapour Sorption (DVS) analysis was carried out using a TA Instruments Q5000 Dynamic Vapor Sorption analyzer. The instrument was calibrated with standard weights and a sodium bromide standard for humidity. Approximately 20 mg of sample was loaded into a metal-coated quartz pan for analysis. The sample was analyzed at 25° C. with a maximum equilibration time of one hour in 10% relative humidity (RH) steps from 5 to 95% RH (adsorption cycle) and from 95 to 5% RH (desorption cycle). The movement from one step to the next occurred either after satisfying the equilibrium criterion of 0.01% weight change or, if the equilibrium criterion was not met, after one hour. The percent weight change values were calculated using Microsoft Excel®. The temperature for the DVS analysis can impact the outcome of the results.

[4] = DVS, 25° C., desorption cycle 95 to 5% RH

Row | Compound | stability when milled in the presence of water or stirred in water [1] | water activity of solvent system at which this form is the more stable of Forms A and B [2] | stability under various humidity conditions ([3]; DVS, 5 to 95% RH) | hygroscopicity based on the DVS data ([3]; DVS, 25° C., 5 to 95% RH) | moisture gain observed during the moisture sorption ([3]; DVS, 25° C.) | moisture loss observed during the desorption cycle [3, 4] | crystalline form after the DVS analysis (XRPD before/after) [3] | moisture loss during the desorption cycle (in words) [3, 4]
1 | CSc1nc(N)c2ncn([C@H]3[C@H](O)[C@H](O)[C@]4(CO)C[C@H]34)c2n1 [Form A of compound A] | stable | ≥ 0.72 | stable under various humidity conditions | moderately hygroscopic | approximately 9.3% | about 2% | remained unchanged | 
2 | CSc1nc(N)c2ncn([C@H]3[C@H](O)[C@H](O)[C@]4(CO)C[C@H]34)c2n1 [Form B of compound A] |  | less than or equal to 0.63 |  | moderately hygroscopic | approximately 6.4% |  | remained unchanged | lost all of the moisture gain
